Test results from patent publication EP0351625B1, “Anti-HIV activity of BV-3608” (Bristol-Myers Squibb Company, priority 1988, dated 1990).

How the values were obtained:
[1] = Cytotoxicity on uninfected MT-4 cells (viable cell count, trypan blue dye exclusion); assay type: cell-based; conditions: human
Procedure: (§1) MT-4 cells are maintained at 37°C in the complete medium. Two days before the start of an experiment, viable cells are counted by the trypan blue dye exclusion method and the concentration is adjusted to 30 x 10⁴ cells/mL.
The test substance is dissolved in dimethylsulfoxide (DMSO) and the solutions are then diluted with complete medium to concentrations of 10, 5.0, 2.5, and 1.25 mcg/ml to provide test solutions. Matched portions of HTLV-IIIB infected and uninfected MOLT-4 cells are adjusted to 60 x 10⁴ cells/mL and mixed with the same volume of diluted test solution to make the final concentration of 30 x 10⁴ cells/mL, and 5.0, 2.5, […], and 0.63 mcg/mL of test substance. To measure anti-HIV activity, the number of viable cells surviving in the test medium are counted by the trypan blue dye-exclusion method on day 3 and day 6 after infection of the cells.
Figure 1 illustrates the inhibition of cytopathic effect of the HIV virus on MT-4 cells by Compound No. 28567. First, the unshaded bars show the lack of cytotoxicity of the compound on uninfected MT-4 cells. Only at concentrations of 28567 in excess of 30 µg/ml is a noticeable or consistent reduction in the number of cells observed after 3 or 6 days, and even at 120 mg/ml, 60-70% of the cells survive.

[2] = tested on: HTLV-IIIB infected MT-4 cells; experiment: Inhibition of cytopathic effect of HIV on infected MT-4 cells (viable cell count); assay type: cell-based; conditions: Human immunodeficiency virus 1, IIIB, MT4; HIV-infected MT-4 cells, 3 or 6 days (Figure 1); read-out: concentration affording virtually complete protection of MT-4 cells
Procedure: The cell line MT-4 disclosed by Harada, S. et al., in Virology, Vol. 146, pp. 272-281 (1985) is appropriate. This cell line features rapid and efficient replication of HTLV-III, followed by cytolysis.
as §1
Infection of the MT-4 cells with the virus is made at a multiplicity of infection (MOI) of 0.002. MT-4 cells (60 x 10⁴ cells/mL) are mixed with a 1:100 dilution of the viral preparation and incubated for 1 hour at 37°C for adsorption of the virus. After adsorption, HTLV-IIIB infected MT-4 cells are washed once and resuspended with complete medium. […]
The test substance is dissolved in dimethylsulfoxide (DMSO) and the solutions are then diluted with complete medium to concentrations of 10, 5.0, 2.5, and 1.25 mcg/ml to provide test solutions. […] To measure anti-HIV activity, the number of viable cells surviving in the test medium are counted by the trypan blue dye-exclusion method on day 3 and day 6 after infection of the cells. […]

[3] = tested on: MOLT-4 and MOLT-4/HTLV-IIIB; experiment: Cell fusion / giant cell formation in MOLT-4 and MOLT-4/HTLV-IIIB co-culture (cell size distribution); assay type: cell-based; conditions: 25 µg/ml in medium, mixed culture; 11.8% without compound
Procedure: The effect on cell fusion which results in cell to cell infection and giant cell formation may be examined as follows. MOLT-4 and its virus-producing cell, MOLT-4/HTLV-IIIB are mixed in 1:1 in proportion of cell number and adjusted to a final concentration of 5 x 10⁵ cells/ml with the medium containing various concentrations of compounds, and then incubated for 10 hours in a CO₂ incubator. After incubation, the distribution of cell size is measured by a cell multisizer (Coulter Electronics Ltd., Luton, England). Viable cells are counted by trypan blue dye exclusion method. Giant cell formation is observed under a phase- contrast microscope. Particles with diameters of from 3 to 100 µm in diameter are observed in the co-cultures. Only those particles having a diameter of more than 9 µm are considered to be cells. Cell sizes in each of the cultures of MOLT-4 or MOLT-4/HTLV-IIIB are similar, and the proportion of cell particles with 12-14 µm diameters are virtually the same in each culture. The percentage of cell particles having more than a 20 µm diameter was 2.7% and in the MOLT-4 cell culture, and 2.4% in the MOLT-4/HTLV-IIIB cell culture. […] This is a reflection of the infectivity by cell-to-cell fusion of the MOLT-4/HTLV-IIIB cells for the uninfected MOLT-4 cells. The test method measures the ability of test substances to prevent or reduce this effect. […]

[4] = Acute toxicity in mice after single intravenous and intramuscular administrations; conditions: mouse, in vivo
Procedure: The acute toxicity of Compound No. 28567 was determined in mice after single intravenous and intramuscular administrations.

In the case of `CN[C@@H]1[C@H](O[C@@H]2OC[C@@H](O)[C@H](O)[C@H]2O)[C@@H](O)[C@H](O[C@H]2c3cc(C)c(C(=O)N[C@H](C)C(=O)O)c(O)c3-c3c(cc4c(c3O)C(=O)c3cc(OC)cc(O)c3C4=O)[C@@H]2O)O[C@@H]1C` [Compound No. 28567], the MCC ([1]; after 3 or 6 days (Figure 1), read-out: concentration at which a noticeable or consistent reduction in the number of cells is observed) is reported as > 30 µg/mL, the viability ([1]; at 120 mg/ml (so in the source), 3 or 6 days, read-out: cells survive) is reported as 60 to 70% and the minimal effective concentration [2] is reported as ≥ 3.5 µg/mL. For the same molecule, the “proportion of particles exceeding 20 µm” value [3] was 2.7%, the sign of toxicity ([4]; 400 mg/kg) was “no sign of toxicity” and the LD50 ([4]; iv, read-out: LD₅₀) was 140 mg/kg.
